Source: patent publication US12268666B2, “Spray-dried dispersions, formulations, and polymorphs of (S)-5-amino-3-(4-((5-fluoro-2-methoxybenzamido)methyl)phenyl)-1-(1,1,1-trifluoropropan-2-yl)-1H-pyrazole-4-carboxamide” (Loxo Oncology, Inc., priority 2018, dated 2025)
Like-named read-outs stand apart in the source and are kept apart here.

Legend:
[1] = molecular target: T1, full-length wild type (WT) human BTK (Homo sapiens, UniProt Q06187); assay: BTK activity assay, [33P]-ATP incorporation into poly-EY; assay type: biochemical
T1 construct: against full-length wild type (WT) and mutant human BTK enzymes
Method: The activity of the compound of Formula I against full-length wild type (WT) and mutant human BTK enzymes is determined by monitoring the incorporation [^33P]-PO4 from [γ-^33P]-ATP into poly-glutamic acid-tyrosine (poly-EY) peptide substrate. The reaction mixtures each contained polyhistidine-tagged BTK enzyme, poly-EY and BTK inhibitor at the appropriate concentrations. The reaction mixtures are incubated for 20 minutes at room temperature after which [[γ-^33P]-ATP (radiochemical concentration 10 μCi/μL) at 10 μM or the ATP Km concentration for each enzyme is added. After 2 hours of incubation at room temperature, the radiolabeled peptide substrate is captured, and incorporated radioactivity is quantified.
(§1) Each assay is performed at an ATP concentration close to the Km for each enzyme. […] After co-incubation with a serial dilution of the compound of Formula I, the quantity of ^33P incorporated into a peptide substrate is measured and the data analyzed using standard curve fitting methods.

BTK C481S = BTK C481S (Homo sapiens, UniProt Q06187, C481S); assay: Y223 autophosphorylation in HEK293 cells stably expressing BTK C481S; assay type: cell-based; set-up: expressed in transfected cells; host or cells: HEK293; details: C481S mutant, 2 hr treatment, signal normalized to total BTK
Method: HEK293 cell lines stably expressing BTK wild type and the mutant form C481S are generated using standard transfection methods. For assessment of cellular inhibition potency, cells are grown in DMEM +10% Fetal Bovine Serum (FBS)+1 μg/ml puromycin (complete growth media) at 37° C. in a CO2 incubator. Cells are harvested according to standard protocols using TRYPLE™ (Gibco #12604-013), counted, resuspended in complete growth media, and added to 6 well assay plates at 4×10 ^5 cell/well in 2 mL. Plates are incubated overnight at 37° C. with 5% CO2. […] All samples are tested in triplicate. Following compound incubation, the growth medium is discarded, cells are washed with DPBS (1×) (Gibco #14190-144) and lysed in 1 mL of […]™ M (Sigma #C2978) containing 1× Halt phosphatase and protease inhibitor cocktails (Pierce #78442). Plates are placed on ice for 1 hr with gentle agitation and stored at −80° C. overnight. The next day, cell lysates are placed in 1.5 mL tubes and cleared by centrifugation at 16,000×g for 10 min at 4° C. Supernatants are quantified by BCA (Pierce #23225) and stored at −80° C. Samples are analyzed by Simple Western (Protein Simple) with anti-phospho-BTK (Y223) (Cell Signaling Technologies (CST) #5082) and anti-BTK (CST #8547) (FIGS. 10A and 10B). β-actin is used as a loading control and detected by regular Western blot with an anti-3-actin antibody (CST #4970).

371 kinases = assay: Kinase selectivity assay (Reaction Biology Wild-Type Kinase Profiler); assay type: biochemical; details: 1.0 μM compound; ATP close to Km for each enzyme
Method: as §1

T1 sequence (Q06187 whole entry): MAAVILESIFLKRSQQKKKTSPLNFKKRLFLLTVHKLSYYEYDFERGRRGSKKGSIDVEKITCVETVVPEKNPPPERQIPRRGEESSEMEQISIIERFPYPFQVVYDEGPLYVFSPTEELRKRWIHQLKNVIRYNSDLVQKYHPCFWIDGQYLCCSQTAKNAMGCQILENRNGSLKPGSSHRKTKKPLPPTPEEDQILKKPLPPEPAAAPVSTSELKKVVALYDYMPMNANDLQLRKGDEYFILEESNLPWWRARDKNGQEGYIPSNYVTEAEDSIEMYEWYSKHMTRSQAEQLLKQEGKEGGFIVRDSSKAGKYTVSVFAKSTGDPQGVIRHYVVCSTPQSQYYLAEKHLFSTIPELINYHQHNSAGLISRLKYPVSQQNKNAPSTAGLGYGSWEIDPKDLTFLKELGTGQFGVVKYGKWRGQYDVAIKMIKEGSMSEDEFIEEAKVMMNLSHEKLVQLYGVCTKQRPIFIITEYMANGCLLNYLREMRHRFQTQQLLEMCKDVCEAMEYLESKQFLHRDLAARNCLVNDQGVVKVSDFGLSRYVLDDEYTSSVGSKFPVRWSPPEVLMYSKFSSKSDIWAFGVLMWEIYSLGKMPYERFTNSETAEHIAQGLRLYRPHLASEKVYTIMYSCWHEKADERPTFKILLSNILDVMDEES
Chain of BTK C481S (Q06187 whole entry C481S): as the sequence (Q06187 whole entry) above, with C481S counted along it

## COc1ccc(F)cc1C(=O)NCc1ccc(-c2nn([C@@H](C)C(F)(F)F)c(N)c2C(N)=O)cc1 [compound of Formula I, (S)-5-amino-3-(4-((5-fluoro-2-methoxybenzamido)methyl)phenyl)-1-(1,1,1-trifluoropropan-2-yl)-1H-pyrazole-4-carboxamide]
[1]; 10 μM ATP, read-out: IC50
  IC50: 0.95 nM
[1]; ATP at Km concentration, read-out: IC50 value
  IC50: 3.15 nM
BTK C481S
  IC50: 8.8 ± 1.8 nM
371 kinases
  kinases other than BTK with Percent of Control (POC) values less than 50: only eight of 371 kinases other than BTK
